Laboratory results reported in PMC4403932 (Journal of Medicinal Chemistry, 2015).
Read-outs that look alike come from different tables or passages of the source.

Columns and labels:
Assay type in all cases: binding
[1] = target: T1, BRD9 (Homo sapiens, UniProt Q9H8M2); assay: Isothermal titration calorimetry, BRD9; details: for LE (ligand efficiency): LE = ΔG/N, N number of non-hydrogen atoms
T1 construct: made in house
T1 sequence (Q9H8M2 136-240 limits assumed): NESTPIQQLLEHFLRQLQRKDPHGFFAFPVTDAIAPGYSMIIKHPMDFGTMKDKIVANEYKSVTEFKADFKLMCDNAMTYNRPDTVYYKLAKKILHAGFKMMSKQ
Procedure: (§1) Experiments were carried out on an ITC200 titration microcalorimeter from MicroCal, LLC (GE Healthcare) equipped with a Washing module, with a cell volume of 0.2003 mL, and a 40 μL microsyringe. Experiments were carried out at 15 °C while stirring at 1000 rpm, in ITC buffer (50 mM HEPES, pH 7.5 (at 25 °C), 150 mM NaCl). The microsyringe was loaded with a solution of the protein sample (300−740 μM protein for BRD9 and BRD4(1), respectively, in ITC buffer) and was carefully inserted into the calorimetric cell which was filled with an amount of the ligand (0.2 mL, 20–25 μM in ITC buffer). The system was first allowed to equilibrate until the cell temperature reached 15 °C, and an additional delay of 60 s was applied. All titrations were conducted using an initial control injection of 0.3 μL followed by 38 identical injections of 1 μL with a duration of 2 s (per injection) and a spacing of 120 s between injections. The titration experiments were designed in such a fashion as to ensure complete saturation of the proteins before the final injection. The heat of dilution for the proteins was independent of their concentration and corresponded to the heat observed from the last injection, following saturation of ligand binding, thus facilitating the estimation of the baseline of each titration from the last injection. The collected data were corrected for protein heats of dilution (measured on separate experiments by titrating the proteins into ITC buffer) and deconvoluted using the MicroCal Origin software supplied with the instrument to yield enthalpies of binding (ΔH) and binding constants (KB) in the same fashion as that previously described in detail by Wiseman and co-workers.[66] Thermodynamic parameters were calculated using the basic equation of thermodynamics (ΔG = ΔH – TΔS = −RT ln KB, where ΔG, ΔH, and ΔS are the changes in free energy, enthalpy, and entropy of binding, respectively). In all cases a single binding site model was employed, supplied with the MicroCal Origin software package.

[2] = target: T1, BRD9; assay: Protein stability (thermal) shift assay, BRD9
Procedure: (§2) Thermal melting experiments were carried out using an Mx3005p real time PCR machine (Stratagene). Proteins were buffered in 10 mM HEPES, pH 7.5, 500 mM NaCl and assayed in a 96-well plate at a final concentration of 2 μM in 20 μL volume. Compounds were added at a final concentration of 10 or 100 μM. SYPRO Orange (Molecular Probes) was added as a fluorescence probe at a dilution of 1 in 1000. Excitation and emission filters for the SYPRO-Orange dye were set to 465 and 590 nm, respectively. The temperature was raised with a step of 3 °C per minute from 25 to 96 °C, and fluorescence readings were taken at each interval. The temperature dependence of the fluorescence during the protein denaturation process was approximated by the equation [drawing 1] where ΔuG is the difference in unfolding free energy between the folded and unfolded state, R is the gas constant, and yF and yU are the fluorescence intensity of the probe in the presence of completely folded and unfolded protein, respectively.[65] The baselines of the denatured and native states were approximated by a linear fit. The observed temperature shifts, ΔTm^obs, were recorded as the difference between the transition midpoints of sample and reference wells containing protein without ligand in the same plate and determined by nonlinear least-squares fit. Temperature shifts (ΔTm^obs) for three independent measurements per proteins/compound are summarized in Supporting Information Table S1.

[3] = target: T2, BRD4(1) (Homo sapiens, UniProt O60885); assay: Isothermal titration calorimetry, BRD4(1); details: for LE (ligand efficiency): LE = ΔG/N, N number of non-hydrogen atoms
T2 construct: made in house
Procedure: as §1

[4] = target: T3, PCAF (Homo sapiens, UniProt Q92831); assay: Protein stability (thermal) shift assay, PCAF; details: for ΔTm at 10 µM: compound 10 μM, protein 2 μM, average of triplicate
T3 construct: representative BRDs from other structural subfamilies (family I, PCAF); made in house
T3 sequence (Q92831 723-827 limits assumed): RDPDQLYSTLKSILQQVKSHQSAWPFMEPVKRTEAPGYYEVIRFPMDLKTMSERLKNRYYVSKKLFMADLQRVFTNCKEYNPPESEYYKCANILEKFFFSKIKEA
Procedure: as §2

[5] = target: T4, BRDT(1) (Homo sapiens, UniProt Q58F21); assay: Protein stability (thermal) shift assay, BRDT(1); details: compound 10 μM, protein 2 μM; average of triplicate
T4 construct: made in house
Procedure: as §2

[6] = target: T5, BRD3(1) (Homo sapiens, UniProt Q15059); assay: Protein stability (thermal) shift assay, BRD3(1); details: compound 10 μM, protein 2 μM; average of triplicate
T5 construct: Fragments were tested in a thermal shift assay against bromodomains of the BET subfamily; made in house
Procedure: as §2

[7] = target: T2, BRD4(1); assay: Protein stability (thermal) shift assay, BRD4(1)
Procedure: as §2

[8] = target: T6, BRD3(2) (Homo sapiens, UniProt Q15059); assay: Protein stability (thermal) shift assay, BRD3(2); details: compound 10 μM, protein 2 μM; average of triplicate
T6 construct: made in house
Procedure: as §2

[9] = target: T7, BRD2(1) (Homo sapiens, UniProt P25440); assay: Protein stability (thermal) shift assay, BRD2(1); details: for ΔTm at 10 µM: compound 10 μM, protein 2 μM, average of triplicate
T7 construct: Fragments were tested in a thermal shift assay against bromodomains of the BET subfamily; made in house
Procedure: as §2

[10] = target: T8, BAZ2B (Homo sapiens, UniProt Q9UIF8); assay: Protein stability (thermal) shift assay, BAZ2B; details: compound 10 μM, protein 2 μM; average of triplicate; read-out: ΔTm Shift, BAZ2BA
T8 construct: representative BRDs from other structural subfamilies (family I, PCAF); family III, CREBBP; family IV, BRD9; family V, BAZ2B; made in house
T8 sequence (Q9UIF8 2060-2164 limits assumed): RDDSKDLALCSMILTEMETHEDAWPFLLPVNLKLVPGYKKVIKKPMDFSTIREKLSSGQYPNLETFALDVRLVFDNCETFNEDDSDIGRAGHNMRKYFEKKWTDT
Procedure: as §2

[11] = target: T9, BRD2(2) (Homo sapiens, UniProt P25440); assay: Protein stability (thermal) shift assay, BRD2(2); details: compound 10 μM, protein 2 μM; average of triplicate
T9 construct: made in house
Procedure: as §2

[12] = target: T10, CREBBP (Homo sapiens, UniProt Q92793); assay: Protein stability (thermal) shift assay, CREBBP
T10 construct: small thermal shits (1.0–1.3 °C) for the bromodomain of CREBBP; made in house
Procedure: as §2

[13] = target: T11, BRD4(2) (Homo sapiens, UniProt O60885); assay: Protein stability (thermal) shift assay, BRD4(2); details: compound 10 μM, protein 2 μM; average of triplicate
T11 construct: made in house
Procedure: as §2

[14] = target: T12, PB1(5) (Homo sapiens, UniProt Q86U86); assay: Protein stability (thermal) shift assay, PB1(5); details: compound 10 μM, protein 2 μM; average of triplicate
T12 construct: made in house
Procedure: as §2

[15] = target: T13, BRDT(2) (Homo sapiens, UniProt Q58F21); assay: Protein stability (thermal) shift assay, BRDT(2); details: compound 10 μM, protein 2 μM; average of triplicate; read-out: ΔTm Shift, BRDT(2)
T13 construct: made in house
Procedure: as §2

[16] = system: human bromodomains (panel); assay: Protein stability (thermal) shift assay, whole panel of human bromodomains; details: 10 μM compound
Procedure: as §2

[17] = ITC, 50 mM HEPES pH 7.5, 150 mM NaCl, 15 °C, reverse titration, triplicate
[18] = compound 10 μM, protein 2 μM, average of triplicate, read-out: ΔTm Shift, BRD9
[19] = thermal shift, 10 μM compound, 2 μM protein, read-out: ΔTm
[20] = ITC, 50 mM HEPES pH 7.5, 150 mM NaCl, 15 °C, reverse titration, triplicate, read-out: KD
[21] = ITC, read-out: dissociation constant
[22] = compound 10 μM, protein 2 μM, average of triplicate, read-out: ΔTm Shift, BRD4(1)
[23] = compound 10 μM, protein 2 μM, average of triplicate, read-out: ΔTm Shift, CREBBP

T12 sequence (Q86U86 653-763 limits assumed): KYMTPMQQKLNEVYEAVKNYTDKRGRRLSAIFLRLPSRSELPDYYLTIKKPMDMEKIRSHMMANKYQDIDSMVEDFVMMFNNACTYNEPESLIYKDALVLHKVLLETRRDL
T5 sequence (Q15059 34-140 limits assumed): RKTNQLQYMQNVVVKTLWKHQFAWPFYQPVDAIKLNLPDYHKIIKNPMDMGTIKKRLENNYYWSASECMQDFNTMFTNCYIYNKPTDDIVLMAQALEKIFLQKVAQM
T9 sequence (P25440 344-453 limits assumed): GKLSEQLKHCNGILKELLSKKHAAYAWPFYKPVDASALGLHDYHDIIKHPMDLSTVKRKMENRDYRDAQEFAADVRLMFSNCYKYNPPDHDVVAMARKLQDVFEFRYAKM
T7 sequence (P25440 74-180 limits assumed): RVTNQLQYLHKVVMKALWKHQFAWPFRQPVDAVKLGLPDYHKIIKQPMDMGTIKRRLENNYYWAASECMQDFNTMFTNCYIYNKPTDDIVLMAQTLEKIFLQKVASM
T10 sequence (Q92793 1085-1192 limits assumed): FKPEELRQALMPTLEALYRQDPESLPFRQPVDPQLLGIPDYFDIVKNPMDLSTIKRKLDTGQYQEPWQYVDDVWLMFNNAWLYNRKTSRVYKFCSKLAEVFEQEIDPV
T6 sequence (Q15059 306-415 limits assumed): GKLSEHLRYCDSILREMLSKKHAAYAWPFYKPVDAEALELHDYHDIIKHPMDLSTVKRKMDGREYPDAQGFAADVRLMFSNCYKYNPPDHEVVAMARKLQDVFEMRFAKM

SMILES | ΔTm at 10 µM [2, 18] [°C] | ΔTm at 10 µM [4] [°C] | ΔTm at 10 µM [5] [°C] | ΔTm at 10 µM [6] [°C] | ΔTm at 10 µM [7, 22] [°C] | ΔTm at 10 µM [8] [°C] | ΔTm at 10 µM [9] [°C] | ΔTm at 10 µM [10] [°C] | ΔTm at 10 µM [11] [°C] | ΔTm at 10 µM [12, 23] [°C] | ΔTm at 10 µM [13] [°C] | ΔTm at 10 µM [14] [°C] | ΔTm at 10 µM [15] [°C] | binding to the bromodomain panel in the ΔTm assay (in words) [16] | further results
Nc1nc(Br)c2nc[nH]c2n1 [Compound 2a, 2-amino-6-bromo-9H-purine] | 0.01 | – | – | – | – | – | – | – | – | – | – | – | – | – | KD [1, 17]: no binding/weak; ΔTm at 10 µM [2, 19]: 1.6 °C; KD [3, 17]: no binding/weak
Nc1nc(-c2ccccc2)c2nc[nH]c2n1 [Compound 3a, 2-Amino-6-phenyl-9H-purine] | -0.107 | 1.3 | 0.739 | 0.9 | 1.4 | 0.6 | 1.7 | 0.537 | 0.9 | 0.847 | 0.5 | 0.9 | 0.7 | – | Kd [1, 20]: 8.47 ± 0.237 µM; ΔG ([1]; ITC, 15 °C): –6.69 kcal/mol; N (stoichiometry) ([1]; ITC, 15 °C, reverse titration): 0.99 ± 0.010; Kd [1, 21]: 8.5 µM; LE (ligand efficiency) [1]: 0.42; stabilization of PCAF in thermal melt assay (in words) ([4]; thermal shift, 10 μM compound): stabilized; stabilization of BRD4(1) in thermal melt assay (in words) ([7]; thermal shift, 10 μM compound): stabilized; stabilization of BRD2(1) in thermal melt assay (in words) ([9]; thermal shift, 10 μM compound): stabilized; binding to BRD9 in the ΔTm assay (in words) ([2]; thermal shift, 10 μM compound): lack of affinity; Kd [3, 20]: 12 ± 0.743 µM; ΔG ([3]; ITC, 15 °C): –6.48 kcal/mol; N (stoichiometry) ([3]; ITC, 15 °C, reverse titration): 1.03 ± 0.049; Kd [3, 21]: 12 µM; LE (ligand efficiency) [3]: 0.41
Nc1nc(-c2ccc(OCc3ccccc3)cc2)c2nc[nH]c2n1 [Compound 3f, 2-Amino-6-(4-(benzyloxy)phenyl)-9H-purine] | -0.116 | 2.8 | 1.8 | 2.2 | 3.5 | 4.2 | 2 | – | 3.8 | 2.6 | -51.9 | 1.5 | 3.2 | showed binding toward all BRDs | –
Cn1cnc2c(-c3cccc(OCc4ccc(Cl)cc4)c3)nc(N)nc21 [Compound 4e, 2-Amino-6-(3-(4′-chlorobenzyloxy)phenyl)-9-methylpurine] | – | 0.143 | 0.273 | -0.0167 | 0.177 | 0.223 | -0.15 | 0.6 | 0.6 | 0.9 | 0.2 | 0.5 | -0.163 | very weak or no binding | ΔTm at 10 µM [12, 19]: 1 to 1.3 °C
COc1ccc(Cl)cc1-c1nc(N)nc2[nH]cnc12 [Compound 7c, 2-Amino-6-(5-chloro-2-methoxyphenyl)-9H-purine] | – | -0.9 | 0.272 | 0.9 | – | 1.3 | 0.4 | 0.272 | 1.2 | 0.272 | 0.7 | 0.272 | 0.272 | – | Kd [1, 20]: 0.297 ± 0.01 µM; TΔS ([1]; ITC, 15 °C): –3.46 kcal/mol; ΔG ([1]; ITC, 15 °C): –8.59 kcal/mol; N (stoichiometry) ([1]; ITC, 15 °C, reverse titration): 0.98 ± 0.003; ΔHobs ([1]; ITC, 15 °C, reverse titration): –12.05 ± 0.04 kcal/mol; LE (ligand efficiency) [1]: 0.45; ΔTm at 10 µM [7, 19]: 1.1 °C; ΔTm at 10 µM [2, 19]: 3.8 °C; Kd [3, 20]: 2.04 ± 0.118 µM; TΔS ([3]; ITC, 15 °C): 1.29 kcal/mol; ΔG ([3]; ITC, 15 °C): –7.50 kcal/mol; N (stoichiometry) ([3]; ITC, 15 °C, reverse titration): 1.05 ± 0.012; ΔHobs ([3]; ITC, 15 °C, reverse titration): –6.21 ± 0.09 kcal/mol; Kd [3, 21]: 2.04 µM; LE (ligand efficiency) [3]: 0.39
COc1ccc(Br)cc1-c1nc(N)nc2c1ncn2C [Compound 8b, 2-Amino-6-(5-bromo-2-methoxyphenyl)-9-methylpurine] | – | 0.9 | 0.4 | 0.147 | 0.323 | 0.467 | 0.163 | 0.6 | 0.6 | 0.74 | 0.337 | 0.7 | 0.0167 | completely abolished bromodomain binding | KD [1, 17]: no binding/weak
Cn1cnc2c(NCc3ccccc3)nc(NCCO)nc21 [olomoucine, reference compound] | – | – | – | – | – | – | – | – | – | – | – | – | – | did not show any significant stabilization | –
